Some test systems named below: HCT-15; SF-268; U-251; UACC-62; CAKI-1; K562; LOX IMVI; CCRF-CEM; A549; KM-20L2; NCI-H460; RPMI-8226; HOP-62; OVCAR-5; RXF 393; M14; SF-539.
Common to all, as to assay: inhibition of tumour cell growth, NCI panel, 48 h

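Compound exposure: 48 hours, 5 concentrations, 96-well plates. Abbreviation: GI50, concentration required for 50% inhibition of growth.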 Active and inactive are the calls of the source. Cut-off read from the data, not from the text of the source: active = GI50 up to about 1.1 µM and inactive = higher. A value given as a limit tells only on which side of the number the result lay.

For the molecule `COC(=O)C(Cc1cc(OC)c(OC)c(OC)c1)C(=O)OC`, the GI50 is more than 320 µM with HCT-15; > 320 µM (inactive) with SF-268; > 320 µM (inactive) in the test on U-251; > 320 µM (inactive) in the test with UACC-62; > 320 µM (inactive) in the test on CAKI-1; > 320 µM (inactive) in the test with K562. The GI50 in the test with LOX IMVI, with CCRF-CEM, in the test with A549, in the test on KM-20L2, in the test on NCI-H460 and with RPMI-8226 was > 320 µM (inactive) in each case. Moreover, the GI50 in the test with HOP-62, in the test on OVCAR-5 and with RXF 393 was > 320 µM (inactive) each time.

With `Cc1cn2cc(-c3ccncc3)nc2s1`, the GI50 is 98.6 µM in the test on HCT-15; > 100 µM (inactive) with SF-268; > 100 µM (inactive) in the test on U-251; > 100 µM (inactive) with UACC-62; > 100 µM (inactive) in the test with CAKI-1; > 51.8 µM (inactive) in the test on K562. Moreover, the GI50 is > 49.8 µM (inactive) with LOX IMVI; > 100 µM (inactive) with M14; > 52.7 µM (inactive) with CCRF-CEM; > 100 µM (inactive) in the test with A549; > 100 µM (inactive) with KM-20L2; > 100 µM (inactive) with NCI-H460. In addition, the GI50 is > 47.2 µM (inactive) in the test on RPMI-8226, > 100 µM (inactive) with SF-539, > 100 µM (inactive) with HOP-62 and > 100 µM (inactive) with OVCAR-5.

As to `Oc1ccc(C2Oc3cc(O)cc4c3C2c2cc(O)cc3c2C(c2cc(O)cc5c2C4C(c2ccc(O)cc2)O5)C(c2ccc(O)cc2)O3)cc1` (stereo unspecified), the GI50 with HCT-15 was more than 25 µM; in the test with SF-268, 5.12 µM (inactive); in the test on U-251 it was 6.32 µM (inactive); in the test on UACC-62, > 25 µM (inactive); in the test with CAKI-1, > 25 µM (inactive); in the test on K562, 7 µM (inactive). The GI50 in the test on LOX IMVI was 7.05 µM (inactive); in the test with M14, > 25 µM (inactive); in the test with CCRF-CEM it was 5.78 µM (inactive); in the test on A549 it was > 25 µM (inactive); in the test with KM-20L2 it was 13.2 µM (inactive); with NCI-H460, 12.6 µM (inactive). Further, the GI50 in the test on RPMI-8226 was 7.45 µM (inactive); with SF-539, 5.58 µM (inactive); in the test on HOP-62, 16.5 µM (inactive); with OVCAR-5, > 25 µM (inactive).

For the molecule `Cc1ccc(NCCO)cc1`, the GI50 in the test with HCT-15 is more than 100 µM; in the test on SF-268, > 100 µM (inactive); with U-251, > 100 µM (inactive); in the test with UACC-62 it was > 100 µM (inactive); with CAKI-1, > 100 µM (inactive); in the test with K562 it was 55 µM (inactive). Moreover, the GI50 in the test on LOX IMVI, with M14, with CCRF-CEM, in the test on A549, in the test on KM-20L2 and in the test on NCI-H460 was > 100 µM (inactive) in each case. The GI50 in the test on RPMI-8226, in the test with SF-539, with HOP-62 and in the test with OVCAR-5 was > 100 µM (inactive) throughout.

On to `CSc1nsc(-c2ccccc2)[s+]1.[O-][Cl+3]([O-])([O-])[O-]`, for which the GI50 is more than 100 µM in the test with HCT-15; > 100 µM (inactive) in the test with SF-268; > 100 µM (inactive) with U-251; > 100 µM (inactive) with UACC-62; > 100 µM (inactive) in the test on CAKI-1; 64.1 µM (inactive) with K562. In addition, the GI50 in the test on M14, with CCRF-CEM, in the test on A549, in the test on KM-20L2, with NCI-H460 and with RPMI-8226 was > 100 µM (inactive) in each case. The GI50 in the test on SF-539, with HOP-62 and with RXF 393 was > 100 µM (inactive) in each case.

On to `Cc1cc(Cl)ccc1NC(=O)CC1SC(NC(=O)c2ccccc2Cl)=NC1=O` (stereo unspecified), for which the GI50 is 19.1 µM with HCT-15; 16.9 µM (inactive) in the test on SF-268; 15.7 µM (inactive) in the test with U-251; 27.1 µM (inactive) in the test on UACC-62; 19.2 µM (inactive) in the test on CAKI-1; 17 µM (inactive) with K562. Moreover, the GI50 is 21.9 µM (inactive) in the test on LOX IMVI; 17.1 µM (inactive) in the test on M14; 2.86 µM (inactive) in the test with CCRF-CEM; 81.7 µM (inactive) in the test with A549; 28.6 µM (inactive) in the test with KM-20L2; > 100 µM (inactive) in the test on NCI-H460. The GI50 was 15.2 µM (inactive) with RPMI-8226, 19.2 µM (inactive) with SF-539, 27.9 µM (inactive) with OVCAR-5 and 17.7 µM (inactive) in the test on RXF 393.

Regarding `c1ccc(P(=Nc2ccccc2N=P(c2ccccc2)(c2ccccc2)c2ccccc2)(c2ccccc2)c2ccccc2)cc1`, the GI50 in the test on SF-268 was > 100 µM (inactive); in the test on U-251 it was 0.326 µM (active); in the test on UACC-62, 0.562 µM (active); in the test on CAKI-1 it was 0.444 µM (active); in the test with K562 it was 1.09 µM (active); in the test with LOX IMVI it was 0.612 µM (active). The GI50 in the test on M14 is 1.44 µM (inactive); in the test with CCRF-CEM, 1.3 µM (inactive); in the test with A549, 0.305 µM (active); with KM-20L2, 1.38 µM (inactive); in the test with NCI-H460, 0.528 µM (active); in the test on RPMI-8226, 1.74 µM (inactive). Moreover, the GI50 is 1.16 µM (inactive) in the test on SF-539, 0.558 µM (active) in the test on HOP-62, 1.53 µM (inactive) in the test on OVCAR-5 and 1.05 µM (active) in the test with RXF 393.

For `COc1cccc(NC(=O)/C(CC(=O)CC(c2ccccc2)c2c(O)c3ccccc3oc2=O)=N\NC(C)(C)C)c1OC` (stereo unspecified), the GI50 in the test with HCT-15 was 28.4 µM; in the test with SF-268, > 100 µM (inactive); with U-251, > 100 µM (inactive); with UACC-62, 33.3 µM (inactive); in the test with CAKI-1, 36.1 µM (inactive); in the test on K562 it was 44.9 µM (inactive). Besides, the GI50 was 36.9 µM (inactive) in the test on LOX IMVI; 44.5 µM (inactive) in the test with M14; 25.7 µM (inactive) in the test with CCRF-CEM; 87.7 µM (inactive) in the test with A549; 51.4 µM (inactive) in the test on KM-20L2; > 100 µM (inactive) in the test on NCI-H460. Also, the GI50 in the test on RPMI-8226 is 29.3 µM (inactive); in the test with SF-539, 34.5 µM (inactive); in the test with HOP-62 it was 86.1 µM (inactive); in the test with OVCAR-5, > 100 µM (inactive).

In the case of `COC(=O)c1cc(Cl)ccc1NC(=O)c1ccc([N+](=O)[O-])cc1`, the GI50 with HCT-15 was 32.2 µM; in the test on U-251, 7 µM (inactive); with UACC-62, 24.2 µM (inactive); in the test with CAKI-1, 15.3 µM (inactive); with K562, 26.9 µM (inactive); with M14, 29 µM (inactive). The GI50 in the test on CCRF-CEM is 22.8 µM (inactive); in the test with A549, 19.6 µM (inactive); with KM-20L2 it was 21.3 µM (inactive); in the test on NCI-H460, 42.3 µM (inactive); in the test on RPMI-8226, 20.2 µM (inactive); with SF-539 it was 20.4 µM (inactive). Besides, the GI50 was 15.2 µM (inactive) in the test with HOP-62, > 100 µM (inactive) in the test with OVCAR-5 and 21.4 µM (inactive) in the test on RXF 393.

Source of the values: ChEMBL document CHEMBL1201862, “PubChem BioAssay data set” (2004).
